According to ChEMBL document CHEMBL1135615:

Experiments:
[1] = target: 4-aminobutyrate aminotransferase, mitochondrial (Homo sapiens) (UniProt P80404); assay: Time dependent inactivation of Gamma-amino-N-butyrate transaminase; settings: Cavia porcellus
[2] = Ratio of kinact to that of KI.

Chain of 4-aminobutyrate aminotransferase, mitochondrial (Homo sapiens) (P80404 whole entry): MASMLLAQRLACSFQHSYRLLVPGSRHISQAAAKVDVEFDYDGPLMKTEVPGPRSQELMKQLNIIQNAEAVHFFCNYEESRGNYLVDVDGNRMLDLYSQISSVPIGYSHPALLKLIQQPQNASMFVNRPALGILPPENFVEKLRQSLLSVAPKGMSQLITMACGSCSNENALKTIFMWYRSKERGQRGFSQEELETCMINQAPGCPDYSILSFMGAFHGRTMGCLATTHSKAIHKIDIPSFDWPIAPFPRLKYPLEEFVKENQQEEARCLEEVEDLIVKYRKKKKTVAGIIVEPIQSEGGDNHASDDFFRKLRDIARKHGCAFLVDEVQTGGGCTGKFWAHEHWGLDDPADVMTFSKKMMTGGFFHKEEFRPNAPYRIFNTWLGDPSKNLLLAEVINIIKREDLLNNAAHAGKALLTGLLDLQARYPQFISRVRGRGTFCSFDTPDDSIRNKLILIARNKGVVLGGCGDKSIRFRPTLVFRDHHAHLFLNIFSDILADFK

SMILES | K inact [1] [min⁻¹] | Ratio [2]
N[C@@H]1C=CC[C@H](C(=O)O)C1 | 0.01 | 0.0042
N[C@@H]1C=CCC[C@@H]1C(=O)O | 0.03 | 0.0024
